# Source: US10294202B2, “Pyrrolidinones as herbicides” (FMC Corporation, priority 2013, dated 2019)
# Like-named read-outs stand apart in the source and are kept apart here.
# What was measured:
# galium = test: Test A postemergence herbicide test; format: in vivo, Galium aparine
# Description: (§1) At the same time, plants selected from these crop and weed species and also blackgrass (Alopecurus myosuroides), and galium (catchweed bedstraw, Galium aparine) were planted in pots containing the same blend of loam soil and sand and treated with postemergence applications of test chemicals formulated in the same manner. Plants ranged in height from 2 to 10 cm and were in the one- to two-leaf stage for the postemergence treatment. Treated plants and untreated controls were maintained in a greenhouse for approximately 10 days, after which time all treated plants were compared to untreated controls and visually evaluated for injury. Plant response ratings, summarized in Table A, are based on a 0 to 100 scale where 0 is no effect and 100 is complete control. A dash (-) response means no test result.
# ragweed = test: Test A pre-/postemergence herbicide test; format: in vivo, Ambrosia elatior; conditions: for Plant response rating, Ragweed: 0 to 100 scale
# Description: as §1, with “Seeds of plant species selected from bamyardgrass (Echinochloa crus-galli), kochia (Kochia scoparia), ragweed (common ragweed, Ambrosia elatior), ryegrass, Italian (Italian ryegrass, Lolium multiflorum), crabgrass, large (large crabgrass Digitaria sanguinalis), giant foxtail (Setaria faberii), morningglory (Ipomoea spp.), pigweed (Amaranthus retroflexus), velvetleaf (Abutilon theophrasti), wheat (Triticum aestivum), and corn (Zea mays) were planted into a blend of loam soil and sand and treated preemergence with a directed soil spray using test chemicals formulated in a non-phytotoxic solvent mixture which included a surfactant. At” for “At”
# barnyardgrass = test: Test A pre-/postemergence herbicide test; format: in vivo, Echinochloa crus-galli; conditions: for Plant response rating, Barnyardgrass: 0 to 100 scale; for pest or weed control at 1000 g/ha: Echinochloa crus-galli, 240 h, 1000 g ai/ha, read-out: Plant response rating, Barnyardgrass
# Method in brief: (§2)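 Visual 0–100 ratings (100 = complete control) made about 10 days after treatment, greenhouse-held plants compared with untreated controls. Treatments: postemergence sprays on one- to two-leaf plants (2–10 cm tall) and preemergence directed soil sprays after planting in loam–sand, chemicals formulated in non-phytotoxic solvent containing surfactant.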
# blackgrass = test: Test A postemergence herbicide test; format: in vivo, Alopecurus myosuroides
# Description: as §1
# giant foxtail = test: Test A pre-/postemergence herbicide test; format: in vivo, Setaria faberii; conditions: for Plant response rating, Foxtail, Giant: 0 to 100 scale; for pest or weed control at 1000 g/ha: Setaria faberi, 240 h, 1000 g ai/ha, read-out: Plant response rating, Foxtail, Giant
# Method in brief: as §2
# kochia = test: Test A pre-/postemergence herbicide test; format: in vivo, Kochia scoparia; conditions: for Plant response rating, Kochia: 0 to 100 scale
# Description: as §1, with “Seeds of plant species selected from bamyardgrass (Echinochloa crus-galli), kochia (Kochia scoparia), ragweed (common ragweed, Ambrosia elatior), ryegrass, Italian (Italian ryegrass, Lolium multiflorum), crabgrass, large (large crabgrass Digitaria sanguinalis), giant foxtail (Setaria faberii), morningglory (Ipomoea spp.), pigweed (Amaranthus retroflexus), velvetleaf (Abutilon theophrasti), wheat (Triticum aestivum), and corn (Zea mays) were planted into a blend of loam soil and sand and treated preemergence with a directed soil spray using test chemicals formulated in a non-phytotoxic solvent mixture which included a surfactant. At” for “At”
# wheat = test: Test A pre-/postemergence herbicide test; format: in vivo, Triticum aestivum; conditions: for plant injury at 1000 g/ha: Triticum aestivum, 240 h, 1000 g ai/ha, read-out: Plant response rating, Wheat
# Method in brief: as §2
# corn = test: Test A pre-/postemergence herbicide test; format: in vivo, Zea mays; conditions: for Corn plant response rating (crop injury, 0 = no effect, 100 = complete kill) at 1000 g/ha: Zea mays, 240 h, 1000 g ai/ha
# Method in brief: as §2
# ryegrass, Italian = test: Test A pre-/postemergence herbicide test; format: in vivo, Lolium multiflorum; conditions: for Plant response rating, Ryegrass, Italian: 0 to 100 scale
# Description: as §1, with “Seeds of plant species selected from bamyardgrass (Echinochloa crus-galli), kochia (Kochia scoparia), ragweed (common ragweed, Ambrosia elatior), ryegrass, Italian (Italian ryegrass, Lolium multiflorum), crabgrass, large (large crabgrass Digitaria sanguinalis), giant foxtail (Setaria faberii), morningglory (Ipomoea spp.), pigweed (Amaranthus retroflexus), velvetleaf (Abutilon theophrasti), wheat (Triticum aestivum), and corn (Zea mays) were planted into a blend of loam soil and sand and treated preemergence with a directed soil spray using test chemicals formulated in a non-phytotoxic solvent mixture which included a surfactant. At” for “At”
# pigweed = test: Test A pre-/postemergence herbicide test; format: in vivo, Amaranthus retroflexus; conditions: for Plant response rating, Pigweed: 0 to 100 scale; for pest or weed control at 1000 g/ha: Amaranthus retroflexus, 240 h, 1000 g ai/ha, read-out: Plant response rating, Pigweed
# Description: as §1, with “Seeds of plant species selected from bamyardgrass (Echinochloa crus-galli), kochia (Kochia scoparia), ragweed (common ragweed, Ambrosia elatior), ryegrass, Italian (Italian ryegrass, Lolium multiflorum), crabgrass, large (large crabgrass Digitaria sanguinalis), giant foxtail (Setaria faberii), morningglory (Ipomoea spp.), pigweed (Amaranthus retroflexus), velvetleaf (Abutilon theophrasti), wheat (Triticum aestivum), and corn (Zea mays) were planted into a blend of loam soil and sand and treated preemergence with a directed soil spray using test chemicals formulated in a non-phytotoxic solvent mixture which included a surfactant. At” for “At”
# crabgrass, large = test: Test A pre-/postemergence herbicide test; format: in vivo, Digitaria sanguinalis; conditions: Digitaria sanguinalis, 240 h, 1000 g ai/ha, read-out: Plant response rating, Crabgrass, Large
# Method in brief: as §2
# morningglory = test: Test A pre-/postemergence herbicide test; format: in vivo, Ipomoea spp.; conditions: Ipomoea, 240 h, 1000 g ai/ha, read-out: Plant response rating, Morningglory
# Description: as §1, with “Seeds of plant species selected from bamyardgrass (Echinochloa crus-galli), kochia (Kochia scoparia), ragweed (common ragweed, Ambrosia elatior), ryegrass, Italian (Italian ryegrass, Lolium multiflorum), crabgrass, large (large crabgrass Digitaria sanguinalis), giant foxtail (Setaria faberii), morningglory (Ipomoea spp.), pigweed (Amaranthus retroflexus), velvetleaf (Abutilon theophrasti), wheat (Triticum aestivum), and corn (Zea mays) were planted into a blend of loam soil and sand and treated preemergence with a directed soil spray using test chemicals formulated in a non-phytotoxic solvent mixture which included a surfactant. At” for “At”
# velvetleaf = test: Test A pre-/postemergence herbicide test; format: in vivo, Abutilon theophrasti; conditions: Abutilon theophrasti, 240 h, 1000 g ai/ha, read-out: Plant response rating, Velvetleaf
# Description: as §1, with “Seeds of plant species selected from bamyardgrass (Echinochloa crus-galli), kochia (Kochia scoparia), ragweed (common ragweed, Ambrosia elatior), ryegrass, Italian (Italian ryegrass, Lolium multiflorum), crabgrass, large (large crabgrass Digitaria sanguinalis), giant foxtail (Setaria faberii), morningglory (Ipomoea spp.), pigweed (Amaranthus retroflexus), velvetleaf (Abutilon theophrasti), wheat (Triticum aestivum), and corn (Zea mays) were planted into a blend of loam soil and sand and treated preemergence with a directed soil spray using test chemicals formulated in a non-phytotoxic solvent mixture which included a surfactant. At” for “At”
# [1] = 125 g ai/ha, 0 to 100 scale, 0 is no effect, 100 is complete control
# [2] = 125 g ai/ha, visual rating, 0 no effect, 100 complete control, approximately 10 days, preemergence
# [3] = Postemergence, 125 g ai/ha, 0 is no effect, 100 is complete control
# [4] = preemergence, 500 g ai/ha, 0 is no effect and 100 is complete control
# [5] = Postemergence, 125 g ai/ha, 0 to 100 scale, 0 is no effect, 100 is complete control
# [6] = post-emergence, Postemergence, 0 to 100 scale (0 no effect, 100 complete control)
# [7] = pre-emergence, Preemergence, visual rating on 0 to 100 scale (0 no effect, 100 complete control), approx. 10 days
structure (smiles),measurement,setting,value
Cc1ccc(F)c(NC(=O)C2C(=O)NCC2c2cccc(C(F)(F)F)c2)c1 (racemic) [Compound 183],"Plant response rating, Galium",galium; [1],0
same,"Galium plant response rating (0 to 100 scale, 0 is no effect, 100 is complete control)",galium; 500 g ai/ha,0
same,"Plant response rating, Ragweed",ragweed; [2],0
same,"Plant response rating, Ragweed",ragweed; [3],0
same,"Ragweed plant response rating (0 to 100 scale, 0 is no effect, 100 is complete control)","ragweed; Postemergence, 500 g ai/ha",0
same,"Plant response rating, Ragweed",ragweed; [4],0
same,"Plant response rating, Barnyardgrass",barnyardgrass; [2],0
same,"Plant response rating, Barnyardgrass",barnyardgrass; [3],0
same,"Barnyardgrass plant response rating (0 to 100 scale, 0 is no effect, 100 is complete control)","barnyardgrass; Postemergence, 500 g ai/ha",0
same,"Plant response rating, Barnyardgrass",barnyardgrass; [4],0
same,"Plant response rating, Blackgrass",blackgrass; [1],0
same,"Blackgrass plant response rating (0 to 100 scale, 0 is no effect, 100 is complete control)",blackgrass; 500 g ai/ha,0
same,"Plant response rating, Foxtail, Giant",giant foxtail; [2],0
same,"Plant response rating, Foxtail, Giant",giant foxtail; [3],0
same,"Foxtail, Giant plant response rating (0 to 100 scale, 0 is no effect, 100 is complete control)","giant foxtail; Postemergence, 500 g ai/ha",0
same,"Plant response rating, Foxtail, Giant",giant foxtail; [4],0
same,"Plant response rating, Kochia",kochia; [2],0
same,"Plant response rating, Kochia",kochia; [3],0
same,"Kochia plant response rating (0 to 100 scale, 0 is no effect, 100 is complete control)","kochia; Postemergence, 500 g ai/ha",0
same,"Plant response rating, Kochia",kochia; [4],0
same,"Plant response rating, Wheat",wheat; [5],0
same,"Wheat plant response rating (0 to 100 scale, 0 is no effect, 100 is complete control)","wheat; Postemergence, 500 g ai/ha",0
same,"Plant response rating, Corn",corn; [5],0
same,"Corn plant response rating (0 to 100 scale, 0 is no effect, 100 is complete control)","corn; Postemergence, 500 g ai/ha",0
same,"Plant response rating, Ryegrass, Italian","ryegrass, Italian; [2]",0
same,"Plant response rating, Ryegrass, Italian","ryegrass, Italian; [3]",0
same,"Ryegrass, Italian plant response rating (0 to 100 scale, 0 is no effect, 100 is complete control)","ryegrass, Italian; Postemergence, 500 g ai/ha",0
same,"Plant response rating, Ryegrass, Italian","ryegrass, Italian; [4]",0
same,"Plant response rating, Pigweed",pigweed; [2],0
same,"Plant response rating, Pigweed",pigweed; [3],0
same,"Pigweed plant response rating (0 to 100 scale, 0 is no effect, 100 is complete control)","pigweed; Postemergence, 500 g ai/ha",0
same,"Plant response rating, Pigweed",pigweed; [4],0
"O=C(Nc1ccccc1F)C1C(=O)N(O)CC1c1ccc(F)c(F)c1 (stereo not drawn) [Compound 44, 4-(3,4-difluorophenyl)-N-(2-fluorophenyl)-1-hydroxy-2-oxo-3-pyrrolidinecarboxamide]",pest or weed control at 1000 g/ha,barnyardgrass; [6],60%
same,pest or weed control at 1000 g/ha,barnyardgrass; [7],40%
same,pest or weed control at 1000 g/ha,"crabgrass, large; [6]",50%
same,pest or weed control at 1000 g/ha,"crabgrass, large; [7]",90%
same,pest or weed control at 1000 g/ha,giant foxtail; [6],30%
same,pest or weed control at 1000 g/ha,giant foxtail; [7],70%
same,pest or weed control at 1000 g/ha,morningglory; [6],0%
same,pest or weed control at 1000 g/ha,morningglory; [7],0%
same,plant injury at 1000 g/ha,wheat; [6],0%
same,plant injury at 1000 g/ha,wheat; [7],0%
same,"Corn plant response rating (crop injury, 0 = no effect, 100 = complete kill) at 1000 g/ha",corn; [6],0%
same,"Corn plant response rating (crop injury, 0 = no effect, 100 = complete kill) at 1000 g/ha",corn; [7],0%
same,pest or weed control at 1000 g/ha,velvetleaf; [6],0%
same,pest or weed control at 1000 g/ha,velvetleaf; [7],0%
same,pest or weed control at 1000 g/ha,pigweed; [6],0%
same,pest or weed control at 1000 g/ha,pigweed; [7],0%
